# Entries after “also recorded” stand apart in the source; their conditions may differ.
# Assays:
# [1] = system: liver; conditions: cited from earlier work; for contrast enhancement: subsequent limited imaging experiments
# [2] = system: liver metastases (mammary adenocarcinoma R3230 AC); test: MRI enhancement in rats with liver metastases: tumor; type: in vivo, Fischer 344 female rats; conditions: for visualization of tumor deposits: i.v.
# Method: The entire procedure was performed under sterile conditions. Four animals died within 48 hours following surgery.
# [3] = system: liver abscess; test: MRI enhancement in liver abscess rats: liver abscess; type: in vivo, Sprague-Dawley rats
# [4] = system: normal liver parenchyma; test: MRI enhancement in normal and liver abscess rats: normal liver parenchyma; type: in vivo, Sprague-Dawley rats
# [5] = Deaths following the imaging experiment; type: in vivo, Sprague-Dawley rats; conditions: 5 rats per agent, i.v.; unclear whether due to contrast media or anesthesia
# Method: Pyrogenic liver abscesses were induced in Sprague-Dawley rats following the method of Weinsten, WM, 1975. Twelve female sprague-Dawley rats (250-300 g each) underwent midline laparotomy following intraperitoneal anesthesia with sodium pentobarbital (40-50 mg/kg), and a filtered bacterial inoculum of colonic contents was directly injected into the liver of each rat. Two animals died within 24 hours following surgery and were excluded from the study. The remaining 10 rats underwent MR imaging 4-6 days after surgery, as described below.
# These studies were done at an estimated 1/10 of the LD50 of protoporphyrin (Jackson et al, 1985).
# [6] = system: normal subcutaneous tissue; test: MRI enhancement in liver abscess rats: normal subcutaneous tissue; type: in vivo, Sprague-Dawley rats; conditions: for enhancement of normal subcutis (in words): i.v.
# [7] = rat, in vivo
# [8] = system: subcutaneous abscesses; test: MRI enhancement in liver abscess rats: subcutaneous abscesses; type: in vivo, Sprague-Dawley rats; conditions: for enhancement of subcutaneous abscesses (in words): i.v.
# [9] = early work; cited from earlier work
# [10] = system: normal liver tissue; conditions: i.v. 0.04 mmol/kg, 30 minutes
# [11] = solubility and stability in hydrophilic and lipophilic solvents
# [12] = system: normal liver parenchyma
# Method: Imaging experiments were performed with a General Electric CSI-II 2.0 T (85.6 Mhz proton resonant frequency) chemical shift imaging spectrometer (GE Medical Systems, Fremont, Calif.). The proton imaging sequence used was that of a standard pin echo 2DFT sequence that employed a single 3 mm slice thickness with four phase cycled signal acquisitions. […] Coronal images were obtained of the rats+ abdomen and thorax using a TR of 160 msec and a TE of 16 msec. A specially designed 53 mm outer diameter (130 mm long) imaging coil of the low-pass birdcage resonantor design was employed with a balanced-matched tuning network for all images. […]
# Signal intensity was measured by region-of-interest (ROI) analysis both for normal liver parenchyma, liver lesions and a corn oil standard. […] Signal intensity was measured over the center of the hepatic abscesses. Signal intensities were also determined for normal subcutaneous tissue in the area of the thoracic wall and for subcutaneous abscesses located in the anterior abdominal wall in rats with liver abscesses. Measured signal intensities (SI) were normalized to the intensity of the corn oil standard for all pre- and postcontrast images. Signal intensity enhancement was calculated according to the formula: (SI postcontrast-SI precontrast)/SI precontrast. […]
# [13] = system: Vx-2 tumor; test: MRI signal enhancement, Vx-2 carcinoma model: tumor; type: in vivo, New Zealand White (NZW) rabbits; conditions: i.v. 0.04 mmol/kg, 30 minutes
# [14] = in vitro
# [15] = system: normal liver tissue; conditions: gastric lavage, 0.05 mmol/kg Mn mesoporphyrin + […] mixed micelles, 4 hours
# [16] = system: liver metastases
# [17] = system: gall bladder; conditions: i.v. 0.04 mmol/kg, 30 minutes
compound,measurement,setting,value
O=C([O-])CN(CCN(CC(=O)[O-])CC(=O)[O-])CCN(CC(=O)[O-])C(COCc1ccccc1)C(=O)[O-].[Gd+3] (stereo not drawn) [Gd-BOPTA],hepatic excretion and bile duct opacification,[1]; in vivo,undergoes hepatic excretion and opacifies the bile ducts
"CNC[C@H](O)[C@@H](O)[C@H](O)[C@H](O)CO.CNC[C@H](O)[C@@H](O)[C@H](O)[C@H](O)CO.O=C([O-])CN(CCN(CC(=O)[O-])CC(=O)O)CCN(CC(=O)[O-])CC(=O)O.[Gd+3] [Gd-DTPA, gadopentetate dimeglumine]",contrast enhancement of normal liver and focal liver lesions,[1]; intravenous,"nonselectively enhances either normal liver, focal liver lesions or both"
"O=S(=O)([O-])c1ccc(-c2c3nc(c(-c4ccc(S(=O)(=O)[O-])cc4)c4ccc([nH]4)c(-c4ccc(S(=O)(=O)[O-])cc4)c4nc(c(-c5ccc(S(=O)(=O)[O-])cc5)c5ccc2[nH]5)C=C4)C=C3)cc1.[Mn+4] [Mn TPPS4, manganese tetrakis-(4-sulfonatophenyl)porphyrin, reference compound]",visualization of tumor deposits,[2],failed to help in distinguishing the site of the tumor deposits
same,enhancement of liver and tumor / lesion discrimination,[2]; i.v. Mn-TPPS4,enhanced both liver and tumor thus providing no discrimination of the lesion
same,contrast between normal and diseased tissue,[3]; i.v.,"enhanced both normal liver and abscesses, thus providing no improved contrast between normal and diseased tissue"
same,enhancement of liver abscess,"[3]; i.v. Mn TPPS4, 10 minutes post injection, p less than 0.05",63%
same,enhancement of normal liver parenchyma,"[4]; i.v. Mn TPPS4, 10 minutes post injection, p greater than 0.05",43%
same,death following the imaging experiment,[5],One rat
same,enhancement of normal subcutis (in words),[6],enhanced both subcutis and subcutaneous abscesses
same,enhancement of normal subcutaneous tissue,"[6]; i.v. Mn TPPS4, 60 minutes, p less than 0.05",56%
same,skin discoloration,[7],green discoloration of the skin
same,enhancement of subcutaneous abscesses (in words),[8],enhanced both subcutis and subcutaneous abscesses
same,enhancement of subcutaneous abscesses,"[8]; i.v. Mn TPPS4, 60 minutes, p greater than 0.05",88%
C=CC1=C(C)c2cc3[n-]c(cc4[n-]c(cc5nc(cc1n2)C(C)=C5C=C)c(C)c4CCC(=O)[O-])c(CCC(=O)[O-])c3C.[H+].[H+].[Mn+2] [manganese protoporphyrin],contrast enhancement,[1],caused hepatic and biliary contrast enhancement
C=CC1=C(C)c2cc3[nH]c(cc4nc(cc5[nH]c(cc1n2)c(C)c5CCC(=O)O)C(CCC(=O)O)=C4C)c(C)c3C=C [protoporphyrin],solubility,[9],poor solubility
same,toxicity,[9],apparent high toxicity
same,T1 effects in the liver,[1]; early work,tissue specific T1(inversion time) effects were clearly demonstrated in the liver
manganese (III) mesoporphyrin [Mn mesoporphyrin],delayed tumor enhancement,"[2]; 24 and 48 hrs, n=3 rats",no delayed tumor enhancement was observed
same,visualization of tumor deposits,[2],made visualization of tumor deposits extremely simple
same,effect on signal intensity of metastases,"[2]; i.v. 0.035 mmol/kg, center and periphery of tumors, over 60 min, n=6 rats",did not significantly affect the signal intensity of metastases
same,enhancement of the liver (MRI signal intensity),[10],89.6+/-17.5%
same,enhancement of liver abscesses (in words),"[3]; i.v., any time",not enhanced at any time
same,solubility in K2PO4 / water-based buffer,[11],improved solubility in high pH solutions
same,increase of signal intensity of normal liver parenchyma over baseline,"[12]; 24 and 48 hrs, n=3 rats, may be artificially high",30%
same,maximum enhancement of normal liver parenchyma,"[12]; i.v. 0.035 mmol/kg, over 60 min",70%
same,liver enhancement,"[4]; i.v. 0.035-0.045 mmol/kg, 10 minutes, p less than 0.01",43%
same,prolonged enhancement of normal liver parenchyma,"[4]; i.v., over the observation period of 60 min, significant",30-50%
same,enhancement of the tumor tissue (MRI signal intensity),[13],12.7+/-12.1%
same,statistical significance of tumor enhancement,[13],not statistically significant
same,death following the imaging experiment,[5],one
same,enhancement of normal subcutis (in words),[6],did not yield enhancement; also recorded: did not enhance either subcutis or subcutaneous abscesses
same,binding by cholestyramine,[14],cholestyramine binds Mn mesoporphyrin
same,enhancement of normal liver tissue over baseline,[15],65%
same,contrast enhancement of normal hepatic tissue,"[1]; T1 weighted MRI, non-toxic doses",contrast enhancement of normal hepatic tissue leading to improved diagnostic visualization of tumors and abscesses
same,tumor-to-liver contrast,"[16]; gastric, 0.05 mmol/kg + […] mixed micelles, single observation vs control animal",significant increase of the tumor-to-liver contrast
same,"enhancement properties, oral vs intravenous","[16]; tumor-to-liver contrast, oral administration",substantially equivalent to the properties established for intravenous administration
same,enhancement of subcutaneous abscesses (in words),[8],did not yield enhancement; also recorded: did not enhance either subcutis or subcutaneous abscesses
same,enhancement of the gall bladder (MRI signal intensity),[17],373+/-92.3%
manganese uroporphyrin,contrast enhancement,[1],produced dramatic contrast effects in the kidneys and urine

# — patent US5169944A, “Methods and compositions for the enteral administration of hepatobiliary MRI contrast agents” (Board of Regents of the University of Washington, priority 1991, dated 1992)
